Here are results for 6 compounds from patent publication US20120053172A1 (Cooperatieve MIRzorg U.A., priority 2009, published 2012).

Each structure is given as a SMILES string. Where two headings read alike, the source gives them in different places.

In data set [1] the test system is insulin secretion. As to conditions: comparable dosages; cited from earlier work.
For data set [2], the system named is obese men. Here is the method:
The study was focused on detecting the early beneficial effects. […] Metformin was started in a dose of 850 mg twice daily, and was increased to 850 mg three times daily in the second week. All subjects received exercise training three times a week, and all were instructed to take a 30 minute walk after lunch and after dinner.
Dietary intake was reduced by about 30%, according to the calculation procedure described in example 1.
A total of 19 obese men with a BMI of 30-37.5 kg/m^2 participated in the study.

Data set [3] relates to obese, healthy men. Nature of the data set: First study: open, uncontrolled 6 month Diazoxide insulin suppression and weight loss study.
Experimental: Fourteen obese, healthy men were studied for 6 months in an open, uncontrolled study.
All subjects received dietary advice to reduce caloric intake to meet the calculated basal requirements for ideal body weight (based on the Harrison-Bennedict equation). They were also instructed to increase walking exercise to at least 30 minutes a day. […] Subsequently, the following data were recorded every month, for a period of 6 months: body weight, abdominal circumference, supine and upright blood pressure, the results of a two-day, 8-point HGM, and adverse effects.
DZX was increased every month until a maximum of 900 mg/day was reached or until side effects occurred.
For data set [4], the system named is hyperinsulinaemic obese subjects. As to conditions: 8-week weight-loss diet; 32 women, 3 men; cited from earlier work.
Data set [5] has as its system obese hyperinsulinaemic men. The following applies: high-dose, 6 months, with moderate caloric restriction and lifestyle advice; cited from earlier work.
Data set [6] has as its system obese men. As to conditions: one week, cited from earlier work.
The test system of data set [7] is obese men. The following applies: cited from earlier work.
Data set [8] relates to hyperinsulinaemic patients. As to conditions: maximal 200 mg/day in three dosages, eight weeks; placebo 5.0 kg; cited from earlier work.
Data set [9] has as its system hyperinsulinaemic, non-diabetic adolescents. The following applies: 850 mg twice daily for eight weeks; placebo 3.8%; cited from earlier work.
The test system of data set [10] is adults. The following applies: 2380±320 mg for six months; cited from earlier work.
Data set [11] relates to overweight patients with dyslipidemia. The following applies: in vivo; cited from earlier work.
Setting [12] is: oral 300 mg per day in three dosages.
Where [13] appears, read: after six months, mean dosage about 585 mg/day.

For the compound `CNC(=NS(=O)(=O)c1ccc(Cl)cc1)N1C[C@H](c2ccccc2)C(c2ccc(Cl)cc2)=N1` [Compound A, (4S)-3-(4-chlorophenyl)-N′-[(4-chlorophenyl)sulfonyl]-N-methyl-4-phenyl-4,5-dihydro-1-H-pyrazole-1-carboximidamide], the “inhibiting insulin secretion, compared with Diazoxide” value in data set [1] is reported as “more effective than Diazoxide”.
Regarding `CC1=NS(=O)(=O)c2cc(Cl)ccc2N1` [Diazoxide, 7-chloro-3-methyl-4H-1,2,4-benzothiadiazine-1,1-dioxide], the “decrease in fasting serum insulin” value in data set [2] (2 months, mean±SEM, Diazoxide 100 mg twice then three times a day, Metformin 850 mg twice then three times daily) turned out to be 42.4±17.7%. Also, the “serum glucose level before treatment” value in data set [2] (in vivo) worked out at 5.7 ± 0.2 mmol/L. Moreover, in [3] (6 months), the “body weight after treatment” value turned out to be 105.7 ± 3.8 kg, the other adverse effects entry is “not observed” and the “waist circumference after treatment” value is 107.7±2.2 cm. Further, the “decrease of total body fat mass” value in data set [3] (6 months, DEXA) turned out to be 9.5 ± 1.9 kg. Besides, the “reduction of fasting insulin levels” value in data set [3] (6 months, mean daily dose 600±54 mg, P<0.001) was determined as 65%. Besides, the “change in total body fat mass” value in [3] (6 months, P<0.001) was −23.3%. Further, in data set [3] (6 months, P<0.01), the “increase of fasting glucose” value was found to be 0.8 ± 0.3 mmol/L. In data set [3] (baseline), the “body weight at baseline” value worked out at 115.1 ± 3.4 kg and the “waist circumference at baseline” value was 116.9±1.4 cm. Besides, in [4], the “effect on weight loss” value is given as “No effect”. The weight reduction entry in data set [5] is listed as “relevant degree of weight reduction”. Also, the “effect on plasma glucose and insulin levels” value in data set [6] (oral 150 mg per day in three dosages) was “no significant effect”. Also, the “effect on plasma glucose and insulin levels” value in [6] (oral 225 mg per day in three dosages) is reported as “no significant effect”. In [6] (setting [12]), the “effect on fasting or postprandial glucose levels” value is reported as “without affecting fasting or postprandial glucose levels” and the “reduction of plasma insulin levels” value was “about 20%”. For the same compound, in data set [7] (setting [13]), the “body weight after treatment” value is “about 103 kg” and the “plasma level of Diazoxide” value was “about 49 mg/l”. Also, the “body weight at start” value in data set [7] (before treatment) is “about 114 kg”. Also, the weight loss in data set [8] is 9.8 kg.
On to `CN(C)C(=N)N=C(N)N` [Metformin], for which the weight loss entry in [9] is reported as “about 6.5%”. In addition, the weight reduction in [10] was 3.24%.
On to `CCCCCCCCCCC[C@@H](C[C@@H]1OC(=O)[C@H]1CCCCCC)OC(=O)[C@H](CC(C)C)NC=O` [Orlistat], for which, in data set [11], the “(placebo-subtracted) net weight loss” value is roughly 3 kg.
Turning to `Cc1c(C(=O)NN2CCCCC2)nn(-c2ccc(Cl)cc2Cl)c1-c1ccc(Cl)cc1` [Rimonanbant, Rimonabant], the “(placebo-subtracted) net weight loss” value in data set [11] is “about 6 kg”.
For `CC(C)CC(N(C)C)C1(c2ccc(Cl)cc2)CCC1` (stereo not drawn) [Sibutramine], in data set [11], the “(placebo-subtracted) net weight loss” value is recorded as “about 5 kg”.
